{
  "source": "patent US20250281665A1",
  "about": "“BIONIC DRESSING-FORMING COMPOSITION, BIONIC DRESSING, AND METHOD OF FORMING THE BIONIC DRESSING” (THE HONG KONG POLYTECHNIC UNIVERSITY, priority 2024, published 2025)",
  "test_system": "3T3 cells",
  "assay": "Biocompatibility evaluation (live/dead, CCK-8, extract medium)",
  "type": "cell-based",
  "experimental": "The tests in this example were conducted under the following conditions/standards. • 5. Mechanical property test: The mechanical properties of bionic excipients were based on the ASTM F2458-05 standard. GelMA, PGLADMA and double-layer GelMA/PGLADMA samples with a size of 20×5 mm were prepared and stretched at a rate of 1 mm/min using a two-arm mechanical tensile instrument at room temperature, and the mechanical properties were calculated, where tensile elastic modulus=stress/strain. For example, reference can be made to the test method in Theocharidis G, Yuk H, Roh H, et al. A strain-programmed patch for the healing of diabetic wounds [J]. Nature biomedical engineering, 2022, 6 (10): 1118-1133. • 6. Hemostatic property: For the hemostatic properties of bionic excipients, for example, reference can be made to Guo Y, Wang Y, Zhao X, et al. Snake extract-laden hemostatic bioadhesive gel cross-linked by visible light [J]. Science Advances, 2021, 7 (29): cabf9635. • 7. […] After 1, 2, and 3 days of incubation, cell viability and cell proliferation were evaluated using a live/dead cell detection kit (Thermo Fisher, Hong Kong) and a CCK-8 kit (Sigma-Aldrich, Hong Kong), respectively. […]",
  "data": [
    {"smiles": "Oc1cc(Cl)ccc1Oc1ccc(Cl)cc1Cl", "note": "[TCS, triclosan]", "values": [
      {"measurement": "toxicity to cells", "setting": "TCS concentration below 5%", "value": "no toxicity"},
      {"measurement": "toxicity to cells", "setting": "TCS concentration of around 10%", "value": "only slightly toxic"}
    ]}
  ]
}
